# Measurements: patent US20130216579A1, “METHODS AND COMPOSTITIONS FOR GENE EDITING OF A PATHOGEN” (priority 2012, published 2013)
# Tests used:
# [1] = tested on: ZFN 30413 (synthetic construct); experiment: cell_activity; conditions: pair with 30415; K76I conversion 29/29 and 25/25 in 106/1 with CQ selection; 2/36 clones in Dd2 without selection
# [2] = tested on: 106/1^13/15mut2 and 106/1^14/15mut1 parasite lines; experiment: In vitro CQ IC50 of gene-edited 106/1 lines, parasitemia by flow cytometry after 72 h; format: cell-based, P. falciparum; conditions: lines 106/1^13/15mut2 and 106/1^14/15mut1, 72 h
# Protocol: (§1) We also confirmed the CQ resistance phenotype of two gene-edited lines, 106/1^13/15mut2 and 106/1^14/15mut1 (FIG. 4A). […] Parasitemia was determined by flow cytometry after a 72 h incubation with drug. Parasites were stained with 1.6 μM Mito Tracker® (Molecular probes, Invitrogen) and 2×Sybr® Green (Molecular probes, Invitrogen) in 1×PBS supplemented with 5% FBS as described. In vitro IC50 values were calculated by non-linear regression analysis and Mann-Whitney U tests were employed for statistical analysis.
# CQS strain 106/1 = experiment: CQ exposure of non-transfected 106/1 cultures; format: cell-based, P. falciparum; conditions: 33 nM CQ, six independent non-transfected 106/1 cultures
# [3] = tested on: GC03^crt-Dd2 G9 and GC03^crt-Dd2 H6 parasite clones; experiment: In vitro CQ IC50 of pfcrt allelic replacement clones vs GC03 parent; format: cell-based, P. falciparum
# Protocol: To quantify the efficiency of pfcrt allelic replacement, clones were generated by limiting dilution and analyzed by PCR. We observed replacement events in 13/82 (15.9%) 106/1 clones and 4/83 (4.8%) GC03 clones (FIG. 3B).
# as §1
# [4] = tested on: ZFN 30414 (synthetic construct); experiment: cell_activity; conditions: pair with 30415; K76I conversion 38/38, 28/28 and 31/31 in 106/1 with CQ selection; 10/40 clones in Dd2 without selection
compound,measurement,setting,value
CTGTTAAGGTCGACAAGGGAAAAAAAAA (double strand) [pfcrt 30413 target site],activity,[1],100%
"CCN(CC)CCCC(C)Nc1ccnc2cc(Cl)ccc12 (centres unmarked) [CQ, chloroquine]",shift in CQ IC50 values relative to the unmodified 106/1 parent line,[2],5-6 fold
same,parasite outcome under CQ exposure,CQS strain 106/1,yielded no parasites after 90 days
same,shift in CQ IC50 values compared to the GC03 parent,[3],4- to 5 fold
CTGTTAAGGTCGACAAGGGAAAAAAAAA (double strand) [pfcrt 30414 target site],activity,[4],100%
